Calls of active or inactive are those of the source. How the calls were made is not given here.
Test system: CCRIS mutagenicity, Ames/micronucleus/aberration tests
Assay: CCRIS mutagenicity studies
[1] = Test System: AMES SALMONELLA TYPHIMURIUM, Strain/Indicator: TA100, Metabolic Activation: NONE, Method: STANDARD PLATE
[2] = Test System: AMES SALMONELLA TYPHIMURIUM, Strain/Indicator: TA98, Metabolic Activation: NONE, Method: PREINCUBATION
[3] = Test System: AMES SALMONELLA TYPHIMURIUM, Strain/Indicator: TA100, Metabolic Activation: NONE, Method: PREINCUBATION

`COC(C)(C)C` was tested, and the mutagenic call (Test System: AMES SALMONELLA TYPHIMURIUM, Strain/Indicator: TA98, Metabolic Activation: NONE) was “inactive; negative”, the mutagenic call (Test System: AMES SALMONELLA TYPHIMURIUM, Strain/Indicator: TA98, Metabolic Activation: NONE, Method: MICROSUSPENSION) was “inactive; negative” and the mutagenic call (Test System: AMES SALMONELLA TYPHIMURIUM, Strain/Indicator: TA98, Metabolic Activation: NONE, Method: STANDARD PLATE) was “inactive; negative”. The mutagenic call (Test System: AMES SALMONELLA TYPHIMURIUM, Strain/Indicator: TA98, Metabolic Activation: RAT LIVER S-9) was “inactive; negative”, the mutagenic call (Test System: AMES SALMONELLA TYPHIMURIUM, Strain/Indicator: TA98, Metabolic Activation: RAT LIVER S-9, AROCLOR 1254, Method: STANDARD PLATE) was “inactive; negative” and the mutagenic call (Test System: AMES SALMONELLA TYPHIMURIUM, Strain/Indicator: TA98, Metabolic Activation: RAT, LIVER, S-9, AROCLOR 1254, Method: MICROSUSPENSION) was “inactive; negative”. The mutagenic call (Test System: AMES SALMONELLA TYPHIMURIUM, Strain/Indicator: TA100, Metabolic Activation: NONE) was “inactive; negative”, the mutagenic call (Test System: AMES SALMONELLA TYPHIMURIUM, Strain/Indicator: TA100, Metabolic Activation: NONE, Method: MICROSUSPENSION) was “inactive; negative” and the mutagenic call [1] was “inactive; negative”. The mutagenic call (Test System: AMES SALMONELLA TYPHIMURIUM, Strain/Indicator: TA100, Metabolic Activation: RAT LIVER S-9) was “inactive; negative”, the mutagenic call (Test System: AMES SALMONELLA TYPHIMURIUM, Strain/Indicator: TA100, Metabolic Activation: RAT LIVER S-9, AROCLOR 1254, Method: STANDARD PLATE) was “inactive; negative” and the mutagenic call (Test System: AMES SALMONELLA TYPHIMURIUM, Strain/Indicator: TA100, Metabolic Activation: RAT, LIVER, S-9, AROCLOR 1254, Method: MICROSUSPENSION) was “inactive; negative”. For the same compound, the mutagenic call (Test System: AMES SALMONELLA TYPHIMURIUM, Strain/Indicator: TA102, Metabolic Activation: NONE, Method: STANDARD PLATE) was “inactive; negative”, the mutagenic call (Test System: AMES SALMONELLA TYPHIMURIUM, Strain/Indicator: TA102, Metabolic Activation: RAT, LIVER, S-9, PHENOBARBITAL-BETA-NAPHTHOFLAVONE, Method: STANDARD PLATE) was “inactive; negative” and the mutagenic call (Test System: AMES SALMONELLA TYPHIMURIUM, Strain/Indicator: TA104, Metabolic Activation: NONE, Method: MICROSUSPENSION) was “inactive; negative”. For the same compound, the mutagenic call (Test System: AMES SALMONELLA TYPHIMURIUM, Strain/Indicator: TA104, Metabolic Activation: RAT, LIVER, S-9, AROCLOR 1254, Method: MICROSUSPENSION) was “inactive; negative”, the mutagenic call (Test System: AMES SALMONELLA TYPHIMURIUM, Strain/Indicator: TA1535, Metabolic Activation: NONE, Method: MICROSUSPENSION) was “inactive; negative” and the mutagenic call (Test System: AMES SALMONELLA TYPHIMURIUM, Strain/Indicator: TA1535, Metabolic Activation: RAT, LIVER, S-9, AROCLOR 1254, Method: MICROSUSPENSION) was “inactive; negative”. For the same compound, the mutagenic call (Test System: Ames Salmonella typhimurium, Strain/Indicator: TA98, Metabolic Activation: None, Method: Plate incorporation) was “inactive; negative”, the mutagenic call (Test System: Ames Salmonella typhimurium, Strain/Indicator: TA98, Metabolic Activation: None, Method: Preincubation) was “inactive; negative” and the mutagenic call (Test System: Ames Salmonella typhimurium, Strain/Indicator: TA98, Metabolic Activation: Rat, Liver, S-9, Method: Plate incorporation) was “inactive; negative”. The mutagenic call (Test System: Ames Salmonella typhimurium, Strain/Indicator: TA98, Metabolic Activation: Rat, Liver, S-9, Method: Preincubation) was “inactive; negative”, the mutagenic call (Test System: Ames Salmonella typhimurium, Strain/Indicator: TA100, Metabolic Activation: None, Method: Plate incorporation) was “inactive; negative” and the mutagenic call (Test System: Ames Salmonella typhimurium, Strain/Indicator: TA100, Metabolic Activation: None, Method: Preincubation) was “inactive; negative”. For the same compound, the mutagenic call (Test System: Ames Salmonella typhimurium, Strain/Indicator: TA100, Metabolic Activation: Rat, Liver, S-9, Method: Plate incorporation) was “inactive; negative”, the mutagenic call (Test System: Ames Salmonella typhimurium, Strain/Indicator: TA100, Metabolic Activation: Rat, Liver, S-9, Method: Preincubation) was “inactive; negative” and the mutagenic call (Test System: Ames Salmonella typhimurium, Strain/Indicator: YG1041, Metabolic Activation: None, Method: Plate incorporation) was “inactive; negative”. The mutagenic call (Test System: Ames Salmonella typhimurium, Strain/Indicator: YG1041, Metabolic Activation: None, Method: Preincubation) was “inactive; negative”, the mutagenic call (Test System: Ames Salmonella typhimurium, Strain/Indicator: YG1042, Metabolic Activation: None, Method: Plate incorporation) was “inactive; negative” and the mutagenic call (Test System: Ames Salmonella typhimurium, Strain/Indicator: YG1042, Metabolic Activation: None, Method: Preincubation) was “inactive; negative”. The mutagenic call (Test System: MOUSE LYMPHOMA, Strain/Indicator: L5178Y (TK+/TK-), Metabolic Activation: RAT, LIVER, S-9, AROCLOR 1254, Method: SUSPENSION/PLATE) was “active; positive”, the mutagenic call (Test System: MOUSE LYMPHOMA, Strain/Indicator: L5178Y (TK+/TK-), Method: SUSPENSION/PLATE) was “inactive; negative” and the mutagenic call (Test System: UDS MOUSE HEPATOCYTES, Strain/Indicator: THY INCORP, Metabolic Activation: NONE, Method: IN-VIVO-IN VITRO) was “inactive; negative”. The mutagenic call (Test System: UDS RAT HEPATOCYTES, Strain/Indicator: THYMIDINE INCORPORATION, Metabolic Activation: NONE, Method: LIQUID SCINTILLATION COUNTING) was “active; positive” and the mutagenic call (Test System: UDS RAT HEPATOCYTES, Strain/Indicator: THYMIDINE INCORPORATION, Metabolic Activation: RAT LIVER S-9, AROCLOR 1254, Method: LIQUID SCINTILLATION COUNTING) was “active; positive”.

With `CCN(Cc1cccc(S(=O)(=O)O)c1)c1ccc(C(=C2C=CC(=[N+](CC)Cc3cccc(S(=O)(=O)[O-])c3)C=C2)c2ccc(S(=O)(=O)O)cc2)cc1` the mutagenic call (Test System: AMES SALMONELLA TYPHIMURIUM, Strain/Indicator: TA98, Metabolic Activation: HAMSTER, LIVER, S-9, AROCLOR 1254, Method: STANDARD PLATE) was “active; positive”, the mutagenic call (Test System: AMES SALMONELLA TYPHIMURIUM, Strain/Indicator: TA98, Metabolic Activation: HAMSTER, LIVER, S-9, Method: PREINCUBATION (PRIVAL METHOD)) was “active; positive” and the mutagenic call (Test System: AMES SALMONELLA TYPHIMURIUM, Strain/Indicator: TA100, Metabolic Activation: HAMSTER, LIVER, S-9, Method: PREINCUBATION (PRIVAL METHOD)) was “active; positive”. For the same compound, the mutagenic call (Test System: AMES SALMONELLA TYPHIMURIUM, Strain/Indicator: TA1538, Metabolic Activation: HAMSTER, LIVER, S-9, AROCLOR 1254, Method: STANDARD PLATE) was “active; positive”, the mutagenic call (Test System: Mouse lymphoma, Strain/Indicator: L5178Y (tk+/tk-), Metabolic Activation: None, Method: Suspension/plate) was “active; positive” and the mutagenic call (Test System: Mouse lymphoma, Strain/Indicator: L5178Y (tk+/tk-), Metabolic Activation: Rat, Liver, S-9, Aroclor 1254, Method: Suspension/plate) was “inactive; negative”.

With `CCCCCN(CCCOC)C(=O)C(CCC(=O)O)NC(=O)c1ccc(Cl)c(Cl)c1` (configuration not stated) the mutagenic call [2] was “inactive; negative”, the mutagenic call (Test System: AMES SALMONELLA TYPHIMURIUM, Strain/Indicator: TA98, Metabolic Activation: RAT LIVER S-9, PHENOBARBITAL AND 5,6-BENZOFLAVONE, Method: PREINCUBATION) was “inactive; negative” and the mutagenic call [3] was “inactive; negative”. For the same compound, the mutagenic call (Test System: AMES SALMONELLA TYPHIMURIUM, Strain/Indicator: TA100, Metabolic Activation: RAT LIVER S-9, PHENOBARBITAL AND 5,6-BENZOFLAVONE, Method: PREINCUBATION) was “inactive; negative”, the mutagenic call (Test System: AMES SALMONELLA TYPHIMURIUM, Strain/Indicator: TA1535, Metabolic Activation: NONE, Method: PREINCUBATION) was “inactive; negative” and the mutagenic call (Test System: AMES SALMONELLA TYPHIMURIUM, Strain/Indicator: TA1535, Metabolic Activation: RAT LIVER S-9, PHENOBARBITAL AND 5,6-BENZOFLAVONE, Method: PREINCUBATION) was “inactive; negative”. For the same compound, the mutagenic call (Test System: AMES SALMONELLA TYPHIMURIUM, Strain/Indicator: TA1537, Metabolic Activation: NONE, Method: PREINCUBATION) was “inactive; negative”, the mutagenic call (Test System: AMES SALMONELLA TYPHIMURIUM, Strain/Indicator: TA1537, Metabolic Activation: RAT LIVER S-9, PHENOBARBITAL AND 5,6-BENZOFLAVONE, Method: PREINCUBATION) was “inactive; negative” and the mutagenic call (Test System: E.COLI, Strain/Indicator: WP2 UVRA, Metabolic Activation: NONE, Method: PREINCUBATION) was “inactive; negative”. For the same compound, the mutagenic call (Test System: E.COLI, Strain/Indicator: WP2 UVRA, Metabolic Activation: RAT LIVER S-9, PHENOBARBITAL AND 5,6-BENZOFLAVONE, Method: PREINCUBATION) was “inactive; negative”.

With `[Ru]` the mutagenic call (End Point: In vitro chromosomal aberrations, Test System: Human lymphocytes, Metabolic Activation: None) was “inactive; negative. actual compound tested was cis(dichloro)tetraammonium ruthenium(iii)ch”.

For `CCC(=O)OCc1cccc([N+](=O)[O-])c1`, the mutagenic call [2] was “inactive; negative”, the mutagenic call [3] was “inactive; negative” and the mutagenic call (Test System: AMES SALMONELLA TYPHIMURIUM, Strain/Indicator: TA100, Metabolic Activation: RAT, LIVER, S-9, AROCLOR 1254, Method: PREINCUBATION) was “inactive; negative”.

With `OC/C=C/Cl` the mutagenic call [1] was “inactive; negative” and the mutagenic call (Test System: AMES SALMONELLA TYPHIMURIUM, Strain/Indicator: TA100, Metabolic Activation: RAT, LIVER, S-9, PCB, Method: STANDARD PLATE) was “active; positive”.
